The record followed here is US20250236597A1, “DEUTERATED BENZODIAZEPINE ANALOGS AND METHODS OF USE IN TREATING CANCER” (University of Cincinnati, priority 2022, published 2025).

Common to all, as to assay type: cell-based
In one data set the test system is tumors. As to the kind of experiment: Activity summary of exemplary deuterated compounds (Table 1). Conditions: Table 1 summary, result in words.
For data set [1], the system named is human patient-derived cancer cell lines. As to the kind of experiment: Cytotoxicity against the tested cancer cell lines (overall statement). Conditions: A375, LN18 and H1792 cells, result in words. The procedure: (§1) Cytotoxicity of DiD3, DiD5, QHD3, QHD5, KRMD3, and KRMD5 was assessed in A375 human melanoma cells, LN18 human glioma cells, and H1792 human NSCLC cells.
(§2) Each compound powder was weighed and dissolved in DMSO to a concentration of 40 mM. Dissolved compounds were stored at 4° C. Drug dilutions were prepared in phenol free medium as follows:
(§3) Cell culture process: Optimum cell number for each cell line was determined and the cell number giving about 1.0 OD value after one hour of incubation with the CellTiter 96® AQueous One Solution Cell Proliferation Assay reagent (Promega) was selected for cell proliferation experiments. On Day 1, cells were trypsinized, counted, and diluted to: A375 human melanoma cells: 30000 cells/mL (3000 cells/100 μL or 3000 cells/well); LN18 human glioma cells: 50000 cells/mL (5000 cells/100 μL or 5000 cells/well); and H1792 human NSCLC cells: 12000 cells/mL (1200 cells/100 μL or 1200 cells/well).
100 μL of cell suspension was added to 96 well plates. Rows B to G and columns 2 to 11 were seeded with cells. […]
Data analysis: the average OD from the five wells containing medium and no cells (A2 to A6) was calculated and the value subtracted from each individual OD reading. The OD readings for each drug dilution was normalized to DMSO control, set as 100% cell viability/proliferation. […]

Data set [2] deals with A375 human melanoma cells. As to the kind of experiment: Cytotoxicity assay (CellTiter 96 AQueous One), A375 cells. The note with it: A-375, 72 h, read-out: Cytotoxicity of deuterated compounds (IC50, μM). On the procedure:
as §1, §2, §3
(§4) 100 μL of cell suspension was added to 96 well plates. Rows B to G and columns 2 to 11 were seeded with cells. Outer wells around the plate were filled with 100 μL phosphate buffered saline (PBS), except wells A2 to A6, which were filled with medium without cells. Cells were then incubated 24 hours and allowed to attach.
(§5) On Day 2: drug and controls were added to the plated cells as follows: background control: medium in wells A2 to A6 was aspirated and replaced with 100 μL fresh medium; control and test dilutions: medium was carefully aspirated and 100 μL of DMSO control or diluted drug was added to 5 consecutive wells in the same row. After drug addition, plates were returned to the incubator for 48 to 72 hours.
(§6) On Day 5 or 6:20 μL of CellTiter 96® AQueous One Solution Cell Proliferation Assay reagent (Promega) was added to each control or test well, incubated 1 to 2 hours, and then OD was acquired at 490 nm.
(§7) Data analysis: the average OD from the five wells containing medium and no cells (A2 to A6) was calculated and the value subtracted from each individual OD reading. The OD readings for each drug dilution was normalized to DMSO control, set as 100% cell viability/proliferation. Log drug concentration versus percentage viability was then plotted using GraphPad Prism.

The subject of a further data set is LN18 human glioma cells. The data set is described as follows: Cytotoxicity assay (CellTiter 96 AQueous One), LN18 cells. The note with it: LN-18, 72 h, read-out: Cytotoxicity of deuterated compounds (IC50, μM). On the procedure: as §1, §2, §3, §4, §5, §6, §7
A further data set concerns H1792 human NSCLC cells. As to the kind of experiment: Cytotoxicity assay (CellTiter 96 AQueous One), H1792 cells. Conditions: NCI-H1792, 72 h, read-out: Cytotoxicity of deuterated compounds (IC50, μM). On the procedure:
as §1, §2, §3, §4, §5, §6, §7

On to `[2H]C([2H])([2H])N1C(=O)CN=C(c2ccccc2)c2cc(Cl)ccc21` [DiD3], for which the outcome in the data set on tumors was Inactive. Besides, the “Cytotoxicity against the tested human patient-derived cancer cell lines” value in data set [1] is “non-cytotoxic”.

With `[2H]C1([2H])N=C(c2ccccc2)c2cc(Cl)ccc2N(C([2H])([2H])[2H])C1=O` [DiD5], the result with tumors was Inactive. The “Cytotoxicity against the tested human patient-derived cancer cell lines” value in data set [1] is listed as “non-cytotoxic”.

`[2H]C([2H])([2H])N1C(=O)CN=C(c2ccccc2F)c2cc(C#C)ccc21` [KRMD3]: the IC50 (usually the concentration at which inhibition is half-maximal) in data set [2] was found to be 0.35 µM; in the data set with LN18 human glioma cells, 2.43 µM; in the data set on H1792 human NSCLC cells it was 2.13 µM. The Activity entry with tumors is “Active against tumors”.

On to `[2H]C1([2H])N=C(c2ccccc2F)c2cc(C#C)ccc2N(C([2H])([2H])[2H])C1=O` [KRMD5], for which the values for the IC50 (in data set [2]; in the data set with LN18 human glioma cells; in the data set with H1792 human NSCLC cells) were 0.63 µM, 2.67 µM and 2.52 µM, respectively. Besides, the Activity entry with tumors is on record as “Active against tumors”.

With `[2H]C([2H])([2H])N1C(=O)CN=C(c2ccccc2)c2cc(C#C)ccc21` [QHD3], the half-maximal inhibitory concentration (IC50) is 0.31 µM in data set [2], 1.81 µM with LN18 human glioma cells and 1.75 µM in the data set with H1792 human NSCLC cells. In the data set with tumors, the Activity entry is listed as “Active against tumors”.

`[2H]C1([2H])N=C(c2ccccc2)c2cc(C#C)ccc2N(C([2H])([2H])[2H])C1=O` [QHD5]: the IC50 was determined as 0.46 µM in data set [2], 2.51 µM in the data set with LN18 human glioma cells and 1.98 µM with H1792 human NSCLC cells. Besides, the Activity entry in the data set with tumors is “Active against tumors”.
